In US6376666B1 (Nauchno-Issledovatelsky Institut Farmakologii Rossiiskoi …, priority 1994, dated 2002):
Marks after values point to notes of the source that are not given here.

How the values were obtained:
Assay type in all cases: in vivo
[1] = system: ischemized myocardium of cats; assay: ST-segment elevation during 5 min occlusions of coronary artery (acute coronary deficiency); conditions: for change in mean elevation of ST-segment vs control occlusion: cats, 1.0 mg/kg i.v.
Procedure: These experiments were conducted in cats weighing 2,5-4,0 kg under anasthesia by i.v. injection of nembutal (40 mg/kg) in open chest conditions. Epicardium electrogram in 3-4 leads was registered in “Mingograph-81”. The value of mean elevation of ST-segment during 5 min occlusions of anterior left descending coronary artery with 15 min reperfusions between them was the main index of intensity of reversible ischemized damage of myocardium.
The statistical calculation was carried out with non-parametric Wilcocson method for associated variants.

[2] = system: cats; assay: hemodynamics and activity of intact heart in cats under anesthesia; conditions: for Cardiac volume, change from basal level / Heart rate, change from basal level / Mean blood flow accelaration (aortic), change from basal level / Mean blood pressure, change from basal level / Stroke volume, change from basal level: cats, 1.0 mg/kg i.v.
Procedure: The effects of compounds on the hemodynamics and activity of intact heart were studied in cats under anesthesia. The experiments were carried out under conditions of open chest. The phase curve of aortic blood flow was the main index of cardiac activity. The compounds were administered i.v. in physiological solution. The t-Student' test was used to estimate the statistical significance.

[3] = system: Balb/c mice; assay: open-field test, Balb/c mice (passive type of emotional-stress reaction); conditions: i.p., screening
Description: The main point of this approach consists in comparative analysis of the behavioural effects of tested compounds in two inbred strains of mice Balb/c and C57B1/6 with different hereditary types of emotional-stress reactions (ESR). The anxiolytic effect was estimated as the activation of the locomotor activity of animals with “passive” type of ESR (Balb/c mice). The main index describing the sedative properties of tested drugs was the inhibition of the locomotor activity of mice with “active” type of ESR (C57B1/6 strain). The anxioselectivity was evaluated according to coincidence of doses range which activated or inhibited the behavior of mice of different strains. Earlier this approach has been successfully used for estimation of anxioselective activity of such known drugs as phenazepam [Seredenin S. B. et al., Bull.Exp.Biol.Med., 1979, v.88, N7, p.38; Seredenin S. B. et al., Ann.Inst.Super.Sanita, 1990, v.26, N1, p.81-88], mexidol [Seredenin S. B. et al., Khimiko-Farmatsevt.Zhurnal, 1987, N2, p.134; Vironina T. A., Seredenin S. B., Ann.Inst.Super.Sanita, 1988, v.24, N3, p.461-466] and gidazepam [Seredenin S. B. et al., in: “Gidazepam” Kiev, Naukova Dumka, 1992, p.92; Seredenin S. B., Blednov Yu. A., Phys.Chem.Biol.Med., 1993, v.1, N1, p.53-60].
Male C57B1/6 and Balb/c mice (“Stolbovaya” animal farm), weighing 20-22 g were used. The animals were housed in a separate animal room in groups of ten and maintained on 12 h light-dark cycle (light from 8.00 till 20.00) with free access to standard food and water during two weeks before experiment. Testing was performed between 9.00 and 13.00. Every used compound was administered intraperitoneally in water solutions 30 min before testing (0,1 ml solution per 10 g of weight). The “open-field” apparatus consisted of cylinder closed from one end, illuminated by four 75 W lamps fixed to the walls 100 cm above the floor. The “open-field” apparatus was 100 cm in diameter and white-painted; the floor was marked with 3 black circles and some radial lines divided the floor into 16 peripheral and 8 central segments. 30 min after injection each animal was placed in the same peripheral square on the floor for 3 min of testing after 1 min exposure in the dark chamber. The following behavior variables were recorded: 1) the number of crossings in the peripheral area (peripheral activity); 2) the number of crossings in the central segments (central activity); 3) the number of rearings (vertical activity); 4) the emotionality was measured as the number of defecations during the test. The sum of all types of locomotor activity was marked as total activity. The t-Student test was used for statistical analysis.

With `CCOc1ccc2nc(SCCN(C)C)[nH]c2c1` [VIII] the “change in mean elevation of ST-segment vs control occlusion” value (from here on “change in mean elevation of ST-segment”) ([1]; occlusion 20 min after injection, 30 sec of occlusion) was −0.45 mv, the “change in mean elevation of ST-segment” value ([1]; occlusion 20 min after injection, 1 min of occlusion) was −0.30 mv and the “change in mean elevation of ST-segment” value ([1]; occlusion 20 min after injection, 2 min of occlusion) was −0.50 mv. The “change in mean elevation of ST-segment” value ([1]; occlusion 20 min after injection, 4 min of occlusion) was −0.50 mv, the “change in mean elevation of ST-segment” value ([1]; occlusion 20 min after injection, 5 min of occlusion) was −0.25 mv and the “change in mean elevation of ST-segment” value ([1]; occlusion 40 min after injection, 15 sec of reperfusion) was −0.75 mv. The “change in mean elevation of ST-segment” value ([1]; occlusion 40 min after injection, 30 sec of occlusion) was −0.55 mv, the “change in mean elevation of ST-segment” value ([1]; occlusion 40 min after injection, 1 min of occlusion) was −0.35 mv and the “change in mean elevation of ST-segment” value ([1]; occlusion 40 min after injection, 2 min of occlusion) was −0.40 mv. The “change in mean elevation of ST-segment” value ([1]; occlusion 40 min after injection, 4 min of occlusion) was −0.50 mv, the “change in mean elevation of ST-segment” value ([1]; occlusion 40 min after injection, 5 min of occlusion) was −0.85 mv and the “change in mean elevation of ST-segment” value ([1]; occlusion immediately after injection, 15 sec of reperfusion) was −0.40 mv. For the same compound, the “change in mean elevation of ST-segment” value ([1]; occlusion immediately after injection, 30 sec of occlusion) was −1.20* mv, the “change in mean elevation of ST-segment” value ([1]; occlusion immediately after injection, 1 min of occlusion) was −0.90* mv and the “change in mean elevation of ST-segment” value ([1]; occlusion immediately after injection, 2 min of occlusion) was −1.25* mv. The “change in mean elevation of ST-segment” value ([1]; occlusion immediately after injection, 4 min of occlusion) was −0.70 mv, the “change in mean elevation of ST-segment” value ([1]; occlusion immediately after injection, 5 min of occlusion) was −0.80 mv and the “effect on mean elevation of ST-segment during 5 min occlusion, in words” value ([1]; cats, 1,0 mg/kg i.v.) was “decreased the mean elevation of ST-segment”. For the same compound, the “effect on contractile function of heart, in words” value ([2]; cats i.v., same doses as bradycardia) was “slightly enhanced the contractility of myocardium”, the “duration of bradycardia after administration” value ([2]; cats i.v., VIII 1,0, IX 0,5 and 1,0, XX 1,0 and 2,0 mg/kg) was 30 min and the “effect on heart rate, in words” value ([2]; cats i.v., VIII 1,0, IX 0,5 and 1,0, XX 1,0 and 2,0 mg/kg, XXIII 1.0, verapamil 0.5 mg/kg) was “expressed bradycardia”. For the same compound, the “Cardiac volume, change from basal level” value ([2]; after 2 min) was “+7.0 ± 2.9%”, the “Heart rate, change from basal level” value ([2]; after 2 min) was −10.9 ± 2.3 % and the “Mean blood flow accelaration (aortic), change from basal level” value ([2]; after 2 min) was “+3.3 ± 2.7%”. For the same compound, the “Mean blood pressure, change from basal level” value (“Mean blood pressure, change” for short) ([2]; after 2 min) was −1.8 ± 3.8%, the “Stroke volume, change from basal level” value ([2]; after 2 min) was “+20.6 ± 6.5 %” and the “Cardiac volume, change from basal level” value ([2]; after 5 min) was “+6.0 ± 12.8%”. The “Heart rate, change from basal level” value ([2]; after 5 min) was −3.2 ± 1.4%, the “Mean blood flow accelaration (aortic), change from basal level” value ([2]; after 5 min) was −2.0 ± 9.0% and the “Mean blood pressure, change” value ([2]; after 5 min) was −2.8 ± 5.7%. The “Stroke volume, change from basal level” value ([2]; after 5 min) was “+5.6 ± 10.8%”, the “Cardiac volume, change from basal level” value ([2]; after 10 min) was −7.5 ± 9.6% and the “Heart rate, change from basal level” value ([2]; after 10 min) was −4.4 ± 1.9%. The “Mean blood flow accelaration (aortic), change from basal level” value ([2]; after 10 min) was −5.2 ± 7.8%, the “Mean blood pressure, change” value ([2]; after 10 min) was −7.8 ± 5.7% and the “Stroke volume, change from basal level” value ([2]; after 10 min) was −3.5 ± 8.7%. For the same compound, the “Cardiac volume, change from basal level” value ([2]; after 20 min) was −7.2 ± 9.2%, the “Heart rate, change from basal level” value ([2]; after 20 min) was −3.2 ± 1.8% and the “Mean blood flow accelaration (aortic), change from basal level” value ([2]; after 20 min) was −6.2 ± 7.6%. For the same compound, the “Mean blood pressure, change” value ([2]; after 20 min) was −12.0 ± 5.0%, the “Stroke volume, change from basal level” value ([2]; after 20 min) was −4.5 ± 8.4% and the “Cardiac volume, change from basal level” value ([2]; after 30 min) was −2.2 ± 3.0%. For the same compound, the “Heart rate, change from basal level” value ([2]; after 30 min) was −5.4 ± 3.1%, the “Mean blood flow accelaration (aortic), change from basal level” value ([2]; after 30 min) was “+1.2 ± 2.1%” and the “Mean blood pressure, change” value ([2]; after 30 min) was −6.5 ± 5.7%. For the same compound, the “Stroke volume, change from basal level” value ([2]; after 30 min) was “+3.5 ± 3.5%”, the “Cardiac volume, change from basal level” value ([2]; after injection) was 38.1 ± 11.6 % and the “Heart rate, change from basal level” value ([2]; after injection) was −15.3 ± 1.1 %. The “Mean blood flow accelaration (aortic), change from basal level” value ([2]; after injection) was “+31.3 ± 10.8%”, the “Mean blood pressure, change” value ([2]; after injection) was −14.8 ± 12.5% and the “Stroke volume, change from basal level” value ([2]; after injection) was 63.2 ± 14.0 %. For the same compound, the “effect on the behavior (locomotor activity) of Balb/c mice in open-field test, in words” value [3] was “neither activatory nor inhibitory effects”.
